Data taken from patent US7524485B2, “Skin lightening agents, compositions and methods” (Unilever Home & Personal Care, USA, Division of Conopco, …, priority 2002, dated 2009).
Read-outs that look alike come from different tables or passages of the source.

Target: T1, mushroom tyrosinase
T1 construct: mushroom tyrosinase (Sigma T-7755)
Assay: Mushroom Tyrosinase Assay
Format: biochemical
Conditions: L-DOPA substrate, pH 7.0, absorbency 475 nm, vs ethanol control
Method: Mushroom tyrosinase inhibition is indicative of reduction in melanin synthesis, thereby showing skin lightening effect.
Into each well of a 96-well plate, 150 microliters of phosphate buffer (100 mM, pH 7.0), 10 microliters of L-DOPA (L-3, 4-Dihydroxyphenylalanine, 10 mM), and 20 microliters of skin lightening agent (dissolved in ethanol, which is the control) were added. Following an initial measurement of background absorbency at 475-nm, 20 microliters of mushroom tyrosinase (Sigma T-7755; 6050 units/ml) was added and incubated at room temperature.
Absorbency is read at 475-nm over the following time points: 0, 2, 4, and 6.5 minutes. The data is plotted as 475-nm absorbency vs. time (minutes) and the slope of the line is calculated (ΔAbs 475 nm/min).

[1] = Experiment 1, read-out: IC50 (Concentration) Experiment 1
[2] = Experiment 2, read-out: IC50 (Concentration) Experiment 2

SMILES	IC50 [1] [nM]	IC50 [2] [nM]
CCc1ccc(O)cc1O [4-Ethyl Resorcinol, reference compound]	550	400
Oc1ccc(C2SCCS2)c(O)c1 [5-member Di-Thianyl Resorcinol, 4-[2′-(1′,3′-dithiacyclopenty)]-1,3-dihydroxybenzene]	3800	2500
Oc1ccc(C2SCCCS2)c(O)c1 [6-member Di-Thianyl Resorcinol, 4-[2′-(1′,3′-dithiacyclohexy)]-1,3-dihydroxybenzene]	1700	1000
